According to patent US8247532B2, “Deuterated hepatitis C protease inhibitors” (Vertex Pharmaceuticals Incorporated, priority 2006, dated 2012):

Legend:
[1] = type: in vitro ADME; settings: human
Method: (§1) The epimerization rate was measured according to the following assay. Specifically, 100 μL medium (buffer, rat plasma, dog plasma, or human plasma) was added into a 96-well deep plate. To the plasma was then added 10 μL acetonitrile solution containing a test compound (1S,3aR,6aS)-2-((S)-2-((S)-2-cyclohexyl-2-(pyrazine-2-carboxamido)acetamido)-3,3-dimethylbutanoyl)-N—((S)-1-(cyclopropylamino)-1,2-dioxo-3-deutero-hexan-3-yl)octahydrocyclopenta[c]pyrrole-1-carboxamide (at 1 uM or 10 uM) and 1200 μL ethyl acetate into the 96 deep-well plate (2 mL) by using a TomTec liquid handling workstation (Hamden, Conn., USA). The plate was then covered tightly and shaken with a vortex for 20 minutes before it was centrifuged at 3000 rpm for 10 minutes. After centrifuge, 900 μL of the supernatant was transferred to a new V-shape 96 deep-well plate using TomTec, and then dried under nitrogen gas (flow rate of 60 L/min) at 25° C. for about 30 minutes. The residue was reconstituted with 100 μL ethyl acetate, and the solution was again transferred into the glass inserts in the 96-well plate. 20 uL of the reconstituted solution was injected into LC-MS/MS to determine the amount of the epimers. The LC-MS/MS spectrometer used a ChiralPak AD Column (4.6×150 mm, 10 μm), a mixture of isopropanol and n-heptane (10:90, 50:50, or 90:10) as the mobile phase, and isopropanol as the washing solvent. […]

[2] = Epimerization rate assay in buffer; type: physicochemical; settings: 1 uM and 10 uM
Method: as §1

time course (shape) of epimerization [1]: linear rate for 180 minutes
epimerization rate compared with non-deuterated form [2]: slower epimerization rate
SMILES: [2H][C@@](CCC)(NC(=O)[C@@H]1[C@H]2CCC[C@H]2CN1C(=O)[C@@H](NC(=O)[C@@H](NC(=O)c1cnccn1)C1CCCCC1)C(C)(C)C)C(=O)C(=O)NC1CC1 [deuterated compound, (1S,3aR,6aS)-2-((S)-2-((S)-2-cyclohexyl-2-(pyrazine-2-carboxamido)acetamido)-3,3-dimethylbutanoyl)-N—((S)-1-(cyclopropylamino)-1,2-dioxo-3-deutero-hexan-3-yl)octahydrocyclopenta[c]pyrrole-1-carboxamide]
